Values quoted from earlier work as cited in patent publication US20070065449A1 (priority 2005, published 2007).
Where a name gives a salt, the structure may show the parent alone. Read-outs that look alike come from different tables or passages of the source.

Columns and labels:
[1] = tested on: soft tissue sarcoma; details: 29 evaluable patients, previously treated with chemotherapy
[2] = tested on: soft tissue sarcoma; details: 27 evaluable patients, previously treated with chemotherapy
[3] = tested on: soft tissue sarcomas; details: previously untreated patients; 95% CI 0.1, 29
[4] = tested on: tubulin; details: read-out: concentration required to provide 50% inhibition of microtubule disassembly (IC50)
[5] = not given; remark: listed apart in the source
[6] = in vivo
[7] = tested on: soft tissue sarcomas
[8] = tested on: advanced soft tissue sarcomas
[9] = tested on: pretreated adult soft tissue sarcoma
[10] = not given; remark: listed apart in the source
[11] = tested on: advanced soft tissue sarcomas; details: previously untreated advanced soft tissue sarcomas
[12] = tested on: leiomyosarcoma of the uterus; details: 48 evaluable patients
[13] = tested on: angiosarcoma of the scalp or face; details: four partial and four clinical complete responses

For `Nc1ccn([C@@H]2O[C@H](CO)[C@@H](O)C2(F)F)c(=O)n1` [Gemcitabine HCl, 2′-deoxy-2′,2′-difluorocytidine monohydrochloride ((beta)-isomer)], the “solubility in ethanol and polar organic solvents” value is given as “practically insoluble”, the solubility in methanol is given as “slightly soluble” and the solubility in water is given as “soluble”.
For `CC(=O)O[C@@]12CO[C@@H]1C[C@H](O)[C@@]1(C)C(=O)[C@H](O)C3=C(C)[C@@H](OC(=O)[C@H](O)[C@@H](NC(=O)OC(C)(C)C)c4ccccc4)C[C@@](O)([C@@H](OC(=O)c4ccccc4)[C@H]21)C3(C)C` [docetaxel], the partial responses [1] is given as 17%, the partial responses [2] is given as 15% and the response rate [3] is given as 5.9%. The IC50 [4] was 200 nM, the “storage time of initial diluted solution” value ([5]; 10 mg docetaxel/ml, refrigerator or room temperature) was at most 8 h and the “stability of infusion solution” value ([5]; stored between 2 and 25° C.) was 4 h. The “major toxic effect which limits dose” value [6] was “neutropenia”.
In the case of `Nc1ccn([C@@H]2O[C@H](CO)[C@@H](O)C2(F)F)c(=O)n1` [gemcitabine], the “objective responses in patients with GIST” value ([7]; 17 patients with GIST) is listed as “no objective responses”, the “median duration of remission” value ([7]; in vivo) is listed as 3.5 months and the remission rate ([7]; patients with soft tissue sarcomas) is listed as 18%. For the same compound, the “duration of a partial response in a patient” value ([8]; in vivo) was 8 months, the rate of remissions ([8]; previously untreated patients, 90% CI 0, 18) was 4% and the disease stabilization ([9]; 15 assessable patients) was 47%. For the same compound, the “progression-free survival rate at 6 months” value ([9]; calculated, 95% CI 0, 30.5) was 13.3%, the “progression-free survival rate at 3 months” value ([9]; calculated, 95% CI 21.4, 71.9) was 46.7% and the remission rate ([9]; gemcitabine 1.0 g/m^2 days 1, 8, 15 every 4 weeks, 15 assessable patients) was 6%. For the same compound, the median progression-free survival ([9]; range 1-18+) was 3 months, the “hemolytic uremic syndrome (HUS)” value ([10]; 6 of 2429 patients) was 0.25% and the edema ([10]; human, in vivo) was 13%. The flu syndrome ([10]; human, in vivo) was 19%, the generalized edema ([10]; human, in vivo) was under 1% and the “overall incidence of fever” value ([10]; human, in vivo) was 41%. The peripheral edema ([10]; human, in vivo) was 20%, the principal dose-limiting toxicity ([10]; human, in vivo) was “Myelosuppression” and the rash ([10]; human, in vivo) was 30%. The nausea and vomiting ([10]; usually mild to moderate severity) was 69%.
For `CC(=O)O[C@H]1C(=O)[C@@]2(C)[C@H]([C@H](OC(=O)c3ccccc3)[C@]3(O)C[C@H](OC(=O)[C@H](O)[C@@H](NC(=O)c4ccccc4)c4ccccc4)C(C)=C1C3(C)C)[C@]1(OC(C)=O)CO[C@@H]1C[C@@H]2O` [paclitaxel], the response rate [11] is given as 12.5%, the “complete or partial response” value [12] is given as 8.4% and the stable disease [12] is given as 22.9%. For the same compound, the patients responding [13] was “eight of nine” and the IC50 [4] was 400 nM.
